In US20230295234A1, “ANTIMICROBIAL PEPTIDOMIMETICS” (SPEXIS AG, priority 2020, published 2023):
Values belong to the molecule of their own block, whether it stands above or below them. Bridge positions count the residues as written; N and C are the ends. Square brackets hold non-standard residues; d marks the D form. Peptide text beside a SMILES is read from it. dDab = NCC[C@@H](N)C(=O)O; Dab = NCC[C@H](N)C(=O)O; Nlys = NCCCCNCC(=O)O

Columns and labels:
[1] = tested on: Klebsiella pneumoniae SSI3010; conditions: SSI3010
Summary of the method: (§1)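 Peptides were made up as 1 mg/mL stocks in sterile water. Colonies in 0.85% saline were set to 0.5 McFarland, then diluted in cation-adjusted Mueller-Hinton II broth to about 5×10^5 CFU/mL. Inoculum was combined with two-fold serial peptide dilutions in water containing 0.002% (final) polysorbate 80.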

[2] = tested on: Escherichia coli ATCC 25922; conditions: ATCC 25922
Summary of the method: as §1

[3] = tested on: Escherichia coli MCR-1 Af 45; conditions: MCR-1 Af 45
Summary of the method: as §1

[4] = tested on: human red blood cells (hRBC); assay: Hemolysis of human red blood cells; format: cell-based; conditions: red cells of human, 1 h
Summary of the method: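 Percent hemolysis is OD540 of peptide-treated supernatant relative to water-lysed cells. Each peptide was tested at 200 μg/mL against 20% (v/v) washed human erythrocytes. Incubation was 1 h at 37 °C, 300 rpm.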

Structure (SMILES): CC[C@H](C)[C@H](NC(=O)[C@@H](NC(=O)[C@@H]1CCCN1C(=O)[C@@H](NC(=O)[C@@H]1CCCN1C(=O)[C@H](CCCCN)NC(=O)[C@@H](N)CCCCN)C(C)C)[C@@H](C)CC)C(=O)N[C@@H](Cc1ccc(O)cc1)C(=O)N[C@H]1CSSC[C@@H](C(=O)N[C@@H](CCN)C(=O)N[C@@H](CCCNC(=N)N)C(=O)N[C@@H](Cc2ccc(O)cc2)C(=O)O)NC(=O)[C@H](CCCCN)NC(=O)[C@@H](CCN)NC(=O)[C@H]([C@@H](C)O)NC(=O)CN(CCN)C(=O)[C@H](CCCNC(=N)N)NC(=O)[C@H](CC(N)=O)NC1=O [Example 107] (HELM PEPTIDE1{K.K.P.V.P.I.I.Y.C.N.R.[NCCN(CC(=O)[*:2])[*:1]].T.[NCC[C@@H](N[*:1])C(=O)[*:2]].K.C.[Dab].R.Y}$PEPTIDE1,PEPTIDE1,9:R3-16:R3$$$V2.0; N-terminus assumed)
Klebsiella pneumoniae SSI3010 MIC [1]: 0.25 µg/mL
Escherichia coli ATCC 25922 MIC [2]: 0.25 µg/mL
Escherichia coli MCR-1 Af 45 MIC [3]: 0.25 µg/mL
Hemolysis at 0.2 g/L [4]: 0%

Structure (SMILES): CC[C@H](C)[C@H](NC(=O)[C@@H](NC(=O)[C@@H]1CCCN1C(=O)[C@@H](NC(=O)[C@@H]1CCCN1C(=O)[C@H](CCCCN)NC(=O)CNCCCCN)C(C)C)[C@@H](C)CC)C(=O)N[C@@H](Cc1ccc(O)cc1)C(=O)N[C@H]1CSSC[C@@H](C(=O)N[C@@H](CCN)C(=O)N[C@@H](CCCNC(=N)N)C(=O)N[C@@H](Cc2ccc(O)cc2)C(=O)O)NC(=O)[C@H](CCCCN)NC(=O)[C@@H](CCN)NC(=O)[C@H]([C@@H](C)O)NC(=O)CN(CCCCN)C(=O)[C@H](CCCNC(=N)N)NC(=O)[C@H](CC(N)=O)NC1=O [Example 112] (H-[Nlys]KPVPIIYCNR[Nlys]T[dDab]KC[Dab]RY-OH; disulfide 9-16)
Klebsiella pneumoniae SSI3010 MIC [1]: 0.125 µg/mL
Escherichia coli ATCC 25922 MIC [2]: 0.25 µg/mL
Escherichia coli MCR-1 Af 45 MIC [3]: 0.25 µg/mL
Hemolysis at 0.2 g/L [4]: 0%

Structure (SMILES): CC[C@H](C)[C@H](NC(=O)[C@@H](NC(=O)[C@@H]1CCCN1C(=O)[C@@H](NC(=O)[C@@H]1CCCN1C(=O)[C@H](CCCCN)NC(=O)CNCCN)C(C)C)[C@@H](C)CC)C(=O)N[C@@H](Cc1ccc(O)cc1)C(=O)N[C@H]1CSSC(C)(C)[C@@H](C(=O)N[C@@H](CCN)C(=O)N[C@@H](CCCNC(=N)N)C(=O)N[C@@H](Cc2ccc(O)cc2)C(=O)O)NC(=O)[C@H](CCCCN)NC(=O)[C@@H](CCN)NC(=O)[C@H]([C@@H](C)O)NC(=O)[C@H](CCN)NC(=O)[C@H](CCCNC(=N)N)NC(=O)[C@H](CC(N)=O)NC1=O [Example 113] (HELM PEPTIDE1{[NCCNCC(=O)[*:2]].K.P.V.P.I.I.Y.C.N.R.[Dab].T.[NCC[C@@H](N[*:1])C(=O)[*:2]].K.[Pen].[Dab].R.Y}$PEPTIDE1,PEPTIDE1,9:R3-16:R3$$$V2.0)
Klebsiella pneumoniae SSI3010 MIC [1]: 0.125 µg/mL
Escherichia coli ATCC 25922 MIC [2]: 0.0625 µg/mL
Escherichia coli MCR-1 Af 45 MIC [3]: 0.125 µg/mL
Hemolysis at 0.2 g/L [4]: 0%

Structure (SMILES): CC[C@H](C)[C@H](NC(=O)[C@@H](NC(=O)[C@@H]1CCCN1C(=O)[C@@H](NC(=O)[C@@H]1C[C@@H](N)CN1C(=O)[C@H](CCCCN)NC(=O)[C@@H](N)CCCCN)C(C)C)[C@@H](C)CC)C(=O)N[C@@H](Cc1ccc(O)cc1)C(=O)N[C@@H]1C(=O)N[C@@H](CC(N)=O)C(=O)N[C@@H](CCCNC(=N)N)C(=O)N[C@@H](CCN)C(=O)N[C@@H]([C@@H](C)O)C(=O)N[C@H](CCN)C(=O)N[C@@H](CCCCN)C(=O)N[C@H](C(=O)N[C@@H](CCN)C(=O)N[C@@H](CCCNC(=N)N)C(=O)N[C@@H](Cc2ccc(O)cc2)C(=O)O)CSSC1(C)C [Example 114, Lys-Lys-Pro((4R)NH2)-Val-Pro-Ile-Ile-Tyr-Pen-Asn-Arg-^Dab-Thr-^DDab-Lys-Cys-Dab-Arg-Tyr] (HELM PEPTIDE1{K.K.[N[C@@H]1C[C@@H](C(=O)[*:2])N([*:1])C1].V.P.I.I.Y.[Pen].N.R.[Dab].T.[NCC[C@@H](N[*:1])C(=O)[*:2]].K.C.[Dab].R.Y}$PEPTIDE1,PEPTIDE1,9:R3-16:R3$$$V2.0)
Klebsiella pneumoniae SSI3010 MIC [1]: 0.0625 µg/mL
Escherichia coli ATCC 25922 MIC [2]: 0.0625 µg/mL
Escherichia coli MCR-1 Af 45 MIC [3]: 0.0625 µg/mL
Hemolysis at 0.2 g/L [4]: 0%

Structure (SMILES): CC[C@H](C)[C@H](NC(=O)[C@@H]1C[C@@H](N)CN1C(=O)[C@@H](NC(=O)[C@@H]1CCCN1C(=O)[C@H](CCCCN)NC(=O)[C@@H](N)CCCCN)C(C)C)C(=O)N[C@@H](CCCNC(=N)N)C(=O)N[C@@H](Cc1ccc(O)cc1)C(=O)N[C@@H]1C(=O)N[C@@H](CC(N)=O)C(=O)N[C@@H](CCCNC(=N)N)C(=O)N[C@@H](CCN)C(=O)N[C@@H]([C@@H](C)O)C(=O)N[C@H](CCN)C(=O)N[C@@H](CCCCN)C(=O)N[C@H](C(=O)N[C@@H](CCN)C(=O)N[C@@H](CCCNC(=N)N)C(=O)N[C@@H](Cc2ccc(O)cc2)C(=O)O)CSSC1(C)C [Example 115, Lys-Lys-Pro-Val-Pro((4R)NH2)-Ile-Arg-Tyr-Pen-Asn-Arg-^Dab-Thr-^DDab-Lys-Cys-Dab-Arg-Tyr] (HELM PEPTIDE1{K.K.P.V.[N[C@@H]1C[C@@H](C(=O)[*:2])N([*:1])C1].I.R.Y.[Pen].N.R.[Dab].T.[NCC[C@@H](N[*:1])C(=O)[*:2]].K.C.[Dab].R.Y}$PEPTIDE1,PEPTIDE1,9:R3-16:R3$$$V2.0)
Klebsiella pneumoniae SSI3010 MIC [1]: 0.25 µg/mL
Escherichia coli ATCC 25922 MIC [2]: 0.0625 µg/mL
Escherichia coli MCR-1 Af 45 MIC [3]: 0.125 µg/mL
Hemolysis at 0.2 g/L [4]: 0%

Now from value to molecule, other results behind:

Klebsiella pneumoniae SSI3010 MIC [1]: 0.0625 µg/mL
Escherichia coli ATCC 25922 MIC [2]: 0.125 µg/mL
Escherichia coli MCR-1 Af 45 MIC [3]: ≤0.03125 µg/mL
Structure (SMILES): CC[C@H](C)[C@H](NC(=O)[C@@H](NC(=O)[C@@H]1CCCN1C(=O)[C@@H](NC(=O)[C@@H]1CCCN1C(=O)[C@H](CCCCN)NC(=O)[C@@H](N)CCCCN)C(C)C)[C@@H](C)CC)C(=O)N[C@@H](Cc1ccc(O)cc1)C(=O)N[C@H]1CSSC[C@@H](C(=O)N[C@@H](CCN)C(=O)N(CCCN)CC(=O)N[C@@H](Cc2ccc(O)cc2)C(=O)O)NC(=O)[C@H](CCCCN)NC(=O)[C@@H](CCN)NC(=O)[C@H]([C@@H](C)O)NC(=O)[C@H](CCN)NC(=O)[C@H](CCCNC(=N)N)NC(=O)[C@H](CC(N)=O)NC1=O [Example 108] (HELM PEPTIDE1{K.K.P.V.P.I.I.Y.C.N.R.[Dab].T.[NCC[C@@H](N[*:1])C(=O)[*:2]].K.C.[Dab].[NCCCN(CC(=O)[*:2])[*:1]].Y}$PEPTIDE1,PEPTIDE1,9:R3-16:R3$$$V2.0)
Hemolysis at 0.2 g/L [4]: 0%

Klebsiella pneumoniae SSI3010 MIC [1]: 0.125 µg/mL
Escherichia coli ATCC 25922 MIC [2]: 0.0625 µg/mL
Escherichia coli MCR-1 Af 45 MIC [3]: 0.0625 µg/mL
Structure (SMILES): CC[C@H](C)[C@H](NC(=O)[C@@H](NC(=O)[C@@H]1CCCN1C(=O)[C@@H](NC(=O)[C@@H]1CCCN1C(=O)[C@H](CCCCN)NC(=O)[C@@H](N)CCCCN)C(C)C)[C@@H](C)CC)C(=O)N[C@@H](Cc1ccc(O)cc1)C(=O)N[C@H]1CSSC[C@@H](C(=O)N[C@@H](CCN)C(=O)N(CCCCN)CC(=O)N[C@@H](Cc2ccc(O)cc2)C(=O)O)NC(=O)[C@H](CCCCN)NC(=O)[C@@H](CCN)NC(=O)[C@H]([C@@H](C)O)NC(=O)[C@H](CCN)NC(=O)[C@H](CCCNC(=N)N)NC(=O)[C@H](CC(N)=O)NC1=O [Example 109] (HELM PEPTIDE1{K.K.P.V.P.I.I.Y.C.N.R.[Dab].T.[NCC[C@@H](N[*:1])C(=O)[*:2]].K.C.[Dab].[NCCCCN(CC(=O)[*:2])[*:1]].Y}$PEPTIDE1,PEPTIDE1,9:R3-16:R3$$$V2.0)
Hemolysis at 0.2 g/L [4]: 0%

Klebsiella pneumoniae SSI3010 MIC [1]: 0.125 µg/mL
Escherichia coli ATCC 25922 MIC [2]: 0.125 µg/mL
Escherichia coli MCR-1 Af 45 MIC [3]: 0.125 µg/mL
Structure (SMILES): CC[C@H](C)[C@H](NC(=O)[C@@H](NC(=O)[C@@H]1CCCN1C(=O)[C@@H](NC(=O)[C@@H]1CCCN1C(=O)[C@H](CCCCN)NC(=O)[C@@H](N)CCCCN)C(C)C)[C@@H](C)CC)C(=O)N[C@@H](Cc1ccc(O)cc1)C(=O)N[C@H]1CSSC[C@@H](C(=O)N[C@@H](CCN)C(=O)N(CCN)CC(=O)N[C@@H](Cc2ccc(O)cc2)C(=O)O)NC(=O)[C@H](CCCCN)NC(=O)[C@@H](CCN)NC(=O)[C@H]([C@@H](C)O)NC(=O)[C@H](CCN)NC(=O)[C@H](CCCNC(=N)N)NC(=O)[C@H](CC(N)=O)NC1=O [Example 110] (HELM PEPTIDE1{K.K.P.V.P.I.I.Y.C.N.R.[Dab].T.[NCC[C@@H](N[*:1])C(=O)[*:2]].K.C.[Dab].[NCCN(CC(=O)[*:2])[*:1]].Y}$PEPTIDE1,PEPTIDE1,9:R3-16:R3$$$V2.0)
Hemolysis at 0.2 g/L [4]: 0%

Klebsiella pneumoniae SSI3010 MIC [1]: 0.25 µg/mL
Escherichia coli ATCC 25922 MIC [2]: 0.25 µg/mL
Escherichia coli MCR-1 Af 45 MIC [3]: 0.125 µg/mL
Structure (SMILES): CC[C@H](C)[C@H](NC(=O)[C@@H](NC(=O)[C@@H]1CCCN1C(=O)[C@@H](NC(=O)[C@@H]1CCCN1C(=O)[C@H](CCCCN)NC(=O)[C@@H](N)CCCCN)C(C)C)[C@@H](C)CC)C(=O)N[C@@H](Cc1ccc(O)cc1)C(=O)N[C@H]1CSSC[C@@H](C(=O)N[C@@H](CCN)C(=O)N(CCCNC(=N)N)CC(=O)N[C@@H](Cc2ccc(O)cc2)C(=O)O)NC(=O)[C@H](CCCCN)NC(=O)[C@@H](CCN)NC(=O)[C@H]([C@@H](C)O)NC(=O)[C@H](CCN)NC(=O)[C@H](CCCNC(=N)N)NC(=O)[C@H](CC(N)=O)NC1=O [Example 111] (HELM PEPTIDE1{K.K.P.V.P.I.I.Y.C.N.R.[Dab].T.[NCC[C@@H](N[*:1])C(=O)[*:2]].K.C.[Dab].[N=C(N)NCCCN(CC(=O)[*:2])[*:1]].Y}$PEPTIDE1,PEPTIDE1,9:R3-16:R3$$$V2.0; N-terminus assumed)
Hemolysis at 0.2 g/L [4]: 0%
